# Assay results as given in publication PMC12204359, “Mechanistic Design of Cell-Penetrating Disruptors for a Phospho-Dependent Interaction” (Research Square, 2025).
# Residue numbers refer to the chain shown, from its start. Positions of bridges follow the written chain, without caps; N, C: chain ends. Non-standard residues stand in square brackets, D forms with d. Residues, ends and D or L forms follow the SMILES beside them. *: point of attachment. 5FAM = O=C1OC2(c3ccc(O)cc3Oc3cc(O)ccc32)c2ccc(C(=O)*)cc21; 6FAM = O=C1OC2(c3ccc(O)cc3Oc3cc(O)ccc32)c2cc(C(=O)*)ccc21; S5 = C=CCCC[C@](C)(N)C(=O)O; AEEEA = NCCOCCOCCOCC(=O)O
# Legend:
# [1] = tested on: HeLa cells; experiment: Confocal microscopy of fixed HeLa cells (peptide localisation, endogenous TACC3 and CHC on mitotic spindle); assay type: cell-based
# Experimental: HeLa cells grown on glass coverslips in complete growth medium and treated with 2.5, 5 and 10 μM FAM-peptides for 5 h. Cells were washed with PBS and fixed with PTEMF (20 mM PIPES, pH 6.8, 10 mM EGTA, 1 mM MgCl2, 0.2% Triton X-100 and 4% paraformaldehyde) for 10 min and permeabilized at room temperature in 0.5% Triton-X100 in PBS for 10 min. Cells were blocked in 3% BSA in PBS for 1 h and incubated overnight with primary antibodies diluted in 3% BSA/PBS buffer followed by 1 h incubation with secondary antibodies. Primary antibodies were as follows: mouse anti-CHC (X22; GTX22731; 1:250), rabbit anti-TACC3 (ab134154, Abcam; 1:500). Secondary antibodies were anti-mouse IgG Atto 594 (1:250, 76085, Merck) and anti-rabbit IgG Atto 647N antibody (1:250, 40839, Merck). Coverslips were mounted with ProLong Gold antifade reagent with DAPI (Invitrogen). Peptides were imaged using their 6-FAM fluorescent tag with a 488 nm argon laser. Imaging was performed on a Zeiss LSM880 upright confocal microscope using a 40x/1.4 NA oil objective. Z-stacks comprising of 9–13 × 1 μm sections were acquired. Images were captured using identical settings. The region of interest (~0.6 μm^2) was quantified in three different locations over the spindle, cytoplasm and in the non-cell region of background. Images were analysed using Fiji (v.2.9.0).
# [2] = molecular target: T1, CHC^ankle (clathrin heavy chain aa 358–574) (Homo sapiens, UniProt Q00610); experiment: Fluorescence polarisation direct binding assay, CHC ankle WT; settings: direct binding FP, FAM labelled peptides; CHC WT (385–574); mean of three experiments ± SD; read-out: KD, stapled and control peptides, CHC WT
# T1 construct: we used the minimal ankle region of CHC (CHC^ankle, aa 358–574); GST (TEV-cleavable); made in house
# T1 sequence (Q00610 358-574): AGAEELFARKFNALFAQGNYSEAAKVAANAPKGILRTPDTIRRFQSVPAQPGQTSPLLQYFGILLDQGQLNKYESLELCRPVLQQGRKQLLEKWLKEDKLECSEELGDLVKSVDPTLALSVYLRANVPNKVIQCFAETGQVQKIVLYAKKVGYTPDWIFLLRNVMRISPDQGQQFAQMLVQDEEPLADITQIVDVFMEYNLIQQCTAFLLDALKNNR
# Experimental: (§1) Binding affinity of CHC and TACC3 peptides was calculated based on fluorescence polarization assays performed as reported previously, using linear and stapled FAM-TACC3 peptides corresponding to aa 549–570 of human TACC3 protein. Linear peptides were purchased from PPR (Fareham, UK); Alta Bioscience (Redditch, UK); Biomatik Corporation (Ontario, Canada). Stock solutions of peptides were 10 mM in DMSO. Binding assays were performed in triplicate in the binding buffer 20 mM HEPES pH 7.5, 150 mM NaCl, 5 mM DTT, 0.05% Tween-20. Data analysis was performed using a one-site specific binding model in Prism (GraphPad software, v10.1.0).
# [3] = molecular target: T2, K507A-CHC^ankle (Homo sapiens, UniProt Q00610, K507A); experiment: Fluorescence polarisation direct binding assay, K507A-CHC ankle; settings: direct binding FP, FAM labelled peptides; CHC with K507A substitution; mean of three experiments ± SD; read-out: KD, stapled and control peptides, CHC K507A
# T2 construct: we used the minimal ankle region of CHC (CHC^ankle, aa 358–574); GST (TEV-cleavable); made in house
# T2 sequence (Q00610 358-574 K507A): T1 sequence (Q00610 358-574) with K150A
# Excerpt: CHC constructs for binding studies were produced during previous work by cloning the respective CHC coding sequence of Q00610 (CLH1_HUMAN) aa 1–574 and 358–574, respectively) into a modified pGEX vector containing a TEV-cleavable GST tag[26]. Point mutations K506A and K507A were introduced by site-directed mutagenesis. GB1-TACC3 is the small protein GB1[47] fused to a short, disordered peptide sequence from human TACC3 (Q9Y6A5, aa 545–573). This hybrid sequence was cloned into a pETM6T1 vector which contains a TEV protease-cleavable N-terminal His-NusA tag.
# as §1
Kd [2],Kd [3],Compound,other results
–,–,CC(C)C[C@H](NC(=O)[C@H](C)NC(=O)[C@H](CO)NC(=O)[C@H](CCC(=O)O)NC(=O)[C@H](CCCCN)NC(=O)c1ccc2c(c1)C(=O)OC21c2ccc(O)cc2Oc2cc(O)ccc21)C(=O)N[C@@H](CCCNC(=N)N)C(=O)N[C@@H](CCCCN)C(=O)N[C@@H](CCC(N)=O)C(=O)N[C@@H](CCC(=O)O)C(=O)N[C@@H](CC(C)C)C(=O)N[C@@H](CC(C)C)C(=O)N[C@@H](CC(C)C)C(=O)N[C@@H](CCC(=O)O)C(=O)N[C@@H](Cc1ccccc1)C(=O)N[C@@H](CC(=O)O)C(=O)N1CCC[C@H]1C(=O)N[C@@H](CC(C)C)C(=O)N[C@@H](Cc1ccccc1)C(=O)N[C@@H](CCCNC(=N)N)C(N)=O [Opt P6 TACC3 S558E] (5FAM-KESALRKQELLLEFDPLFR-NH2; N-terminus and C-terminus assumed),"cell permeability seen by confocal imaging ([1]; fixed HeLa cells, 5 h after adding 5 μM FAM-peptide to the culture medium): not sufficiently cell permeable"
–,–,CC(C)C[C@H](NC(=O)[C@H](C)NC(=O)[C@H](CO)NC(=O)[C@H](CCC(=O)O)NC(=O)[C@H](CCCCN)NC(=O)COCCOCCOCCNC(=O)c1ccc2c(c1)C1(OC2=O)c2ccc(O)cc2Oc2cc(O)ccc21)C(=O)N[C@@H](CCCNC(=N)N)C(=O)N[C@@H](CCCCN)C(=O)N[C@@]1(C)CCCC=CCCC[C@@](C)(C(=O)N[C@@H](CCC(=O)O)C(=O)N[C@@H](Cc2ccccc2)C(=O)N[C@@H](CC(=O)O)C(=O)N2CCC[C@H]2C(=O)N[C@@H](CC(C)C)C(=O)N[C@@H](Cc2ccccc2)C(=O)N[C@@H](CCCNC(=N)N)C(=O)N[C@@H](CC(=O)O)C(=O)N[C@@H](CO)C(N)=O)NC(=O)[C@H](CC(C)C)NC(=O)[C@H](CC(C)C)NC(=O)[C@H](CCC(=O)O)NC1=O [Opt PEG3 SP TACC3] ({6FAM-AEEEA}-KESALRK[S5]ELL[S5]EFDPLFRDS-NH2; staple 8-12),"colocalisation with endogenous TACC3 on the mitotic spindle ([1]; fixed mitotic HeLa cells, FAM-labelled peptides, confocal microscopy): colocalised with endogenous TACC3 on the mitotic spindle; reduction of endogenous TACC3 levels in the mitotic spindle ([1]; metaphase HeLa cells, peptide 2.5, 5 and 10 μM, 5 h, compared to the negative control SP TACC3 peptide): up to 40%"
145 ± 3 µM,23 ± 5 µM,CC(C)C[C@H](NC(=O)[C@H](Cc1ccc(O)cc1)NC(=O)[C@H](CC(C)C)NC(=O)[C@]1(C)CCCC=CCCC[C@](C)(NC(=O)[C@H](C)NC(=O)[C@H](CO)NC(=O)[C@H](CCC(=O)O)NC(=O)[C@H](CCCCN)NC(=O)[C@H](Cc2ccccc2)NC(=O)c2ccc3c(c2)C2(OC3=O)c3ccc(O)cc3Oc3cc(O)ccc32)C(=O)N[C@@H](CCCNC(=N)N)C(=O)N[C@@H](CCCCN)C(=O)N[C@@H](CCC(N)=O)C(=O)N1)C(=O)N[C@@H](CCCCN)C(=O)N[C@@H](Cc1ccccc1)C(=O)N[C@@H](CC(=O)O)C(=O)N1CCC[C@H]1C(=O)N[C@@H](CC(C)C)C(=O)N[C@@H](CC(C)C)C(=O)N[C@@H](CCCNC(=N)N)C(=O)N[C@@H](CC(=O)O)C(=O)N[C@@H](CO)C(N)=O [SP2] (6FAM-FKESA[S5]RKQ[S5]LYLKFDPLLRDS-NH2; staple 6-10),–
92 ± 3 µM,23 ± 6 µM,CC(C)C[C@@H]1NC(=O)[C@H](C)NC(=O)[C@H](CO)NC(=O)[C@@](C)(NC(=O)[C@H](CCCCN)NC(=O)[C@H](Cc2ccccc2)NC(=O)c2ccc3c(c2)C2(OC3=O)c3ccc(O)cc3Oc3cc(O)ccc32)CCCC=CCCC[C@@](C)(C(=O)N[C@@H](CCCCN)C(=O)N[C@@H](CCC(N)=O)C(=O)N[C@@H](CC(=O)O)C(=O)N[C@@H](CC(C)C)C(=O)N[C@@H](Cc2ccc(O)cc2)C(=O)N[C@@H](CC(C)C)C(=O)N[C@@H](CCCCN)C(=O)N[C@@H](Cc2ccccc2)C(=O)N[C@@H](CC(=O)O)C(=O)N2CCC[C@H]2C(=O)N[C@@H](CC(C)C)C(=O)N[C@@H](CC(C)C)C(=O)N[C@@H](CCCNC(=N)N)C(=O)N[C@@H](CC(=O)O)C(=O)N[C@@H](CO)C(N)=O)NC1=O [SP3D] (6FAM-FK[S5]SAL[S5]KQDLYLKFDPLLRDS-NH2; staple 3-7),–
78 ± 3 µM,22 ± 6 µM,CC(C)C[C@@H]1NC(=O)[C@H](C)NC(=O)[C@H](CO)NC(=O)[C@@](C)(NC(=O)[C@H](CCCCN)NC(=O)[C@H](Cc2ccccc2)NC(=O)c2ccc3c(c2)C(=O)OC32c3ccc(O)cc3Oc3cc(O)ccc32)CCCC=CCCC[C@@](C)(C(=O)N[C@@H](CCCCN)C(=O)N[C@@H](CCC(N)=O)C(=O)N[C@@H](CCC(=O)O)C(=O)N[C@@H](CC(C)C)C(=O)N[C@@H](Cc2ccc(O)cc2)C(=O)N[C@@H](CC(C)C)C(=O)N[C@@H](CCCCN)C(=O)N[C@@H](Cc2ccccc2)C(=O)N[C@@H](CC(=O)O)C(=O)N2CCC[C@H]2C(=O)N[C@@H](CC(C)C)C(=O)N[C@@H](CC(C)C)C(=O)N[C@@H](CCCNC(=N)N)C(=O)N[C@@H](CC(=O)O)C(=O)N[C@@H](CO)C(N)=O)NC1=O [SP3E] (5FAM-FK[S5]SAL[S5]KQELYLKFDPLLRDS-NH2; staple 3-7),–
–,146 ± 3 µM,CC(C)C[C@H](NC(=O)[C@H](C)NC(=O)[C@H](CO)NC(=O)[C@H](CCC(=O)O)NC(=O)[C@H](CCCCN)NC(=O)[C@H](Cc1ccccc1)NC(=O)c1ccc2c(c1)C(=O)OC21c2ccc(O)cc2Oc2cc(O)ccc21)C(=O)N[C@@H](CCCNC(=N)N)C(=O)N[C@@H](CCCCN)C(=O)N[C@@H](CCC(N)=O)C(=O)N[C@@H](CCC(=O)O)C(=O)N[C@@H](CC(C)C)C(=O)N[C@@H](Cc1ccc(O)cc1)C(=O)N[C@@]1(C)CCCC=CCCC[C@@](C)(C(=O)N[C@@H](CC(C)C)C(=O)N[C@@H](CC(C)C)C(=O)N[C@@H](CCCNC(=N)N)C(=O)N[C@@H](CC(=O)O)C(=O)N[C@@H](CO)C(N)=O)NC(=O)[C@H](CC(=O)O)NC(=O)[C@H](Cc2ccccc2)NC(=O)[C@H](CCCCN)NC1=O [SP5E] (5FAM-FKESALRKQELY[S5]KFD[S5]LLRDS-NH2; staple 13-17),–
